# According to patent US20190192548A1, “USE OF CYCLIC PHOSPHATE SUBSTITUTED NUCLEOSIDE DERIVATIVESFOR THE TREATMENT OF VIRAL DISEASES” (MERCK SHARP & DOHME CORP., priority 2016, published 2019):
# Read-outs that look alike come from different tables or passages of the source.
# Legend:
# [1] = Cytotoxicity assay in replicon cells (MTS, CellTiter 96); assay type: cell-based; conditions: three days post dosing, read-out: CC50 (EDU) Range
# Procedure: (§1) DMSO at 0.5% and fetal bovine serum at 10% in the assay media. Cells are harvested three days post-dosing, and the replicon RNA level is determined using real-time RT-PCR (Taqman assay) with GAPDH RNA as endogenous control. EC50 values are calculated from experiments with 10 serial twofold dilutions of the inhibitor in triplicate. To measure cytotoxicity in replicon cells of an inhibitor, an MTS assay is performed according to the manufacturer's protocol for CellTiter 96 Aqueous One Solution Cell Proliferation Assay (Promega, Cat # G3580) three days post dosing on cells treated identically as in replicon activity assays. […] Cytotoxicity in other types of cells may be measured using the same MTS protocol.
# (§2) Data were obtained using this method for selected compounds of the present invention, and are set forth below in Table 1.
# replicon cells (1b-Con1) = assay: Replicon activity assay (cell-based anti-HCV activity, replicon RNA by real-time RT-PCR)
# Procedure: To measure cell-based anti-HCV activity of the compounds of the present invention, replicon cells (1b-Con1) are seeded at 5000 cells/well in 96-well plates one day prior to treatment with a compound of the invention. Various concentrations of a test compound of the invention in DMSO are then added to the replicon cells, with the final concentration of
# as §1, §2
# replicon cells = assay: Cytotoxicity assay in replicon cells (MTS, CellTiter 96); assay type: cell-based; conditions: three days post dosing, read-out: CC50 (EDU) Range
# Procedure: as §1, §2
# [2] = Hepatitis C virus, 72 h, read-out: EC50 (1b) Range, replicon cells (1b-Con1), replicon RNA level three days post-dosing, GAPDH RNA as control
# [3] = read-out: EC50 (1b) Range, replicon cells (1b-Con1), replicon RNA level three days post-dosing, GAPDH RNA as control
Structure (SMILES),CC50 at 3 days [1],EC50 (replicon cells (1b-Con1); [2]),CC50 (replicon cells),EC50 (replicon cells (1b-Con1); [3])
"CC(C)OC(=O)[C@H](C)CCOP1(=O)OC[C@H]2O[C@@H](n3ccc(N)nc3=O)C(F)(F)[C@@H]2O1 (single isomer, unassigned) [Compound 7 Diastereomer 1]",≤ 50 µM,0.25 to 1 µM,–,–
"CC(C)OC(=O)[C@H](C)CCOP1(=O)OC[C@H]2O[C@@H](n3ccc(N)nc3=O)C(F)(F)[C@@H]2O1 (single isomer, unassigned) [Compound 7 Diastereomer 2]",–,–,≤ 50 µM,< 0.25 µM
"CC(C)OC(=O)[C@@H](C)CCOP1(=O)OC[C@H]2O[C@@H](n3ccc(N)nc3=O)C(F)(F)[C@@H]2O1 (single isomer, unassigned) [Compound 8 Diastereomer 1]",≤ 50 µM,0.25 to 1 µM,–,–
"CC(C)OC(=O)[C@@H](C)CCOP1(=O)OC[C@H]2O[C@@H](n3ccc(N)nc3=O)C(F)(F)[C@@H]2O1 (single isomer, unassigned) [Compound 8 Diastereomer 2]",–,–,≤ 50 µM,0.25 to 1 µM
"CCOC(=O)[C@@H](C)CCOP1(=O)OC[C@H]2O[C@@H](n3ccc(N)nc3=O)C(F)(F)[C@@H]2O1 (single isomer, unassigned) [Compound 9 Diastereomer 1]",≤ 50 µM,0.25 to 1 µM,–,–
"CCOC(=O)[C@@H](C)CCOP1(=O)OC[C@H]2O[C@@H](n3ccc(N)nc3=O)C(F)(F)[C@@H]2O1 (single isomer, unassigned) [Compound 9 Diastereomer 2]",–,–,≤ 50 µM,0.25 to 1 µM
"CCOC(=O)[C@H](C)CCOP1(=O)OC[C@H]2O[C@@H](n3ccc(N)nc3=O)C(F)(F)[C@@H]2O1 (single isomer, unassigned) [Compound 10 Diastereomer 1]",≤ 50 µM,0.25 to 1 µM,–,–
"CCOC(=O)[C@H](C)CCOP1(=O)OC[C@H]2O[C@@H](n3ccc(N)nc3=O)C(F)(F)[C@@H]2O1 (single isomer, unassigned) [Compound 10 Diastereomer 2]",–,–,≤ 50 µM,0.25 to 1 µM
